According to article PMC9597602, “Metal Complexes as Antifungals? From a Crowd-Sourced Compound Library to the First In Vivo Experiments” (JACS Au, 2022):
Values joined by “and” are separate entries in the source; they are usually repeats but may differ in a detail not shown here. Identical values can stand only once. Like-named read-outs stand apart in the source and are kept apart here. Starred links: 1 amine or outer side, 2 acyl side, 3 side chain; linkers in the order of their positions; H or OH if unused. Positions of bridges follow the written chain, without caps; N, C: chain ends. Non-standard residues stand in square brackets, D forms with d. Residues, ends and D or L forms follow the SMILES beside them. *: point of attachment. pTerphenylCO(4''-OnC5H11) = CCCCCOc1ccc(-c2ccc(-c3ccc(C(=O)*)cc3)cc2)cc1; Orn(4R-OH,5R-OH) = O=C([C@H](C[C@@H](O)[C@@H](O)N[*:3])N[*:1])[*:2]; hTyr(3S-OH,4S-OH) = N[C@H](C(=O)O)[C@H](O)[C@@H](O)c1ccc(O)cc1; Pro(3S-OH,4S-Me) = C[C@H]1CN[C@H](C(=O)O)[C@H]1O; Hyp = O=C(O)[C@@H]1C[C@@H](O)CN1

Experiments:
[1] = system: Candida albicans ATCC 90028 NCCLS11; test: Antifungal MIC assay; type: cell-based; settings: for MIC: Candida albicans, ATCC90028, comparator antifungals, read-out: MIC* Candida albicans ATCC 90028; for MIC Ca: initial CO-ADD dose-response screening, ≥80% growth inhibition
Procedure: For the fungal assays, both fungi (yeast) strains were cultured for 3 days on Yeast Extract-Peptone Dextrose (YPD; Becton Dickinson 242720) agar at 30 °C. A yeast suspension of 1 × 10^6 to 5 × 10^6 CFU/mL (as determined by OD530) was prepared from five colonies from the agar plates, subsequently diluted with Yeast Nitrogen Base media (YNB; Becton Dickinson 233520), and added to each well of the compound containing plates (384-well plates, NBS; Corning CLS3640), giving a final cell density of 2.5 × 10^3 CFU/mL and a total volume of 50 μL. Plates were covered and incubated at 35 °C for 36 h without shaking. […] […], equivalent to ″optically clear-to-slightly hazy″ or MIC score of 0–1 as per CLSI guidelines M27 Reference Method for Broth Dilution Antifungal Susceptibility Testing of Yeasts. […] Fluconazole (Sigma F8929) was used as internal control on each plate for all strains. All compounds were tested as two technical replicates in two to four independent biological assays, n = 4–8 final data.

[2] = system: Cryptococcus neoformans H99 ATCC 208821 type strain; test: Antifungal MIC assay; type: cell-based; settings: for MIC: Cryptococcus neoformans; for MIC Cn: initial CO-ADD dose-response screening, ≥80% growth inhibition
Procedure: (§1) For the fungal assays, both fungi (yeast) strains were cultured for 3 days on Yeast Extract-Peptone Dextrose (YPD; Becton Dickinson 242720) agar at 30 °C. A yeast suspension of 1 × 10^6 to 5 × 10^6 CFU/mL (as determined by OD530) was prepared from five colonies from the agar plates, subsequently diluted with Yeast Nitrogen Base media (YNB; Becton Dickinson 233520), and added to each well of the compound containing plates (384-well plates, NBS; Corning CLS3640), giving a final cell density of 2.5 × 10^3 CFU/mL and a total volume of 50 μL. Plates were covered and incubated at 35 °C for 36 h without shaking. […] MIC values were recorded as the lowest concentration at which the growth was inhibited by ≥80%, equivalent to ″optically clear-to-slightly hazy″ or MIC score of 0–1 as per CLSI guidelines M27 Reference Method for Broth Dilution Antifungal Susceptibility Testing of Yeasts. […] Fluconazole (Sigma F8929) was used as internal control on each plate for all strains. All compounds were tested as two technical replicates in two to four independent biological assays, n = 4–8 final data.

[3] = system: Candida tropicalis ATCC 750; test: Antifungal MIC assay, extended panel; type: cell-based; settings: Candida tropicalis, ATCC750, comparator antifungals
Procedure: as §1

[4] = system: Cryptococcus deuterogattii CBS7750 VGII; Serotype B; test: Antifungal MIC assay, extended panel; type: cell-based; settings: Cryptococcus deuterogattii, CBS7750, comparator antifungals
Procedure: as §1

[5] = system: Candida glabrata ATCC 90030 NCCLS 84; test: Antifungal MIC assay, extended panel; type: cell-based; settings: Nakaseomyces glabratus, ATCC90030, comparator antifungals
Procedure: as §1

[6] = system: Cryptococcus deuterogattii ATCC 32609 VGII; test: Antifungal MIC assay, extended panel; type: cell-based; settings: Cryptococcus deuterogattii, ATCC32609, comparator antifungals
Procedure: as §1

[7] = system: Candida auris CBS10913 JCM 15448; test: Antifungal MIC assay, extended panel; type: cell-based; settings: Candidozyma auris, comparator antifungals, read-out: MIC* Candida auris CBS10913
Procedure: (§2) For the fungal assays, both fungi (yeast) strains were cultured for 3 days on Yeast Extract-Peptone Dextrose (YPD; Becton Dickinson 242720) agar at 30 °C. A yeast suspension of 1 × 10^6 to 5 × 10^6 CFU/mL (as determined by OD530) was prepared from five colonies from the agar plates, subsequently diluted with Yeast Nitrogen Base media (YNB; Becton Dickinson 233520), and added to each well of the compound containing plates (384-well plates, NBS; Corning CLS3640), giving a final cell density of 2.5 × 10^3 CFU/mL and a total volume of 50 μL. Plates were covered and incubated at 35 °C for 36 h without shaking. […] MIC […] Reference Method for Broth Dilution Antifungal Susceptibility Testing of Yeasts. […] Fluconazole (Sigma F8929) was used as internal control on each plate for all strains. All compounds were tested as two technical replicates in two to four independent biological assays, n = 4–8 final data.

[8] = system: Candida auris CBS12373 KCTC 17810; test: Antifungal MIC assay, extended panel; type: cell-based; settings: Candidozyma auris, comparator antifungals, read-out: MIC* Candida auris CBS12373
Procedure: as §2

[9] = system: methicillin-resistant Staphylococcus aureus ATCC 43300; test: CO-ADD antibacterial MIC assay; type: cell-based; settings: initial CO-ADD dose-response screening; ≥80% growth inhibition
Procedure: (§3) For the all the bacterial assays, each bacterial strain was cultured in cation-adjusted Mueller Hinton broth (CAMHB; Bacto Laboratories 212322) at 37 °C overnight. A sample of each culture was then diluted 40-fold in fresh CAMHB and incubated at 37 °C for 1.5–3 h. The resultant mid-log phase cultures were diluted with CAMHB (CFU/mL measured by OD600) and then added to each well of the compound-containing plates (384-well non-binding surface (NBS) plates; Corning CLS3640), giving a cell density of 5 × 10^5 CFU/mL and a total volume of 50 μL. Plates were covered and incubated at 37 °C for 18 h without shaking. Inhibition of bacterial growth was determined by measuring the absorbance at 600 nm (OD600) using media only as negative control and bacteria without inhibitors as positive control. MIC values were determined as the lowest concentration at which the growth was inhibited by ≥80% (equivalent to no visible growth by the eye). Colistin sulfate (Sigma C4461) and vancomycin HCl (Sigma 861987) were used as internal controls on each plate for Gram-negative and Gram-positive bacteria, respectively. All compounds were tested as two technical replicates in two independent biological assays, n = 4 final data.

[10] = system: Pseudomonas aeruginosa ATCC 27853 QC control strain; test: CO-ADD antibacterial MIC assay; type: cell-based; settings: initial CO-ADD dose-response screening; ≥80% growth inhibition
Procedure: as §3

[11] = system: Escherichia coli ATCC 25922 FDA control strain; test: CO-ADD antibacterial MIC assay; type: cell-based; settings: initial CO-ADD dose-response screening; ≥80% growth inhibition
Procedure: as §3

[12] = system: Acinetobacter baumannii ATCC 19606 type strain; test: CO-ADD antibacterial MIC assay; type: cell-based; settings: initial CO-ADD dose-response screening; ≥80% growth inhibition
Procedure: as §3

human red blood cells = type: cell-based; settings: initial CO-ADD screening, 1 h; 10% hemolysis
Procedure: Human whole blood (Australian Red Cross) was washed three times with 3 vol of 0.9% NaCl and resuspended in a concentration of 0.5 × 10^8 cells/mL, determined by a manual cell count in a Neubauer hemocytometer. […] After incubation, the plates were centrifuged at 1000g for 10 min to pellet cells and debris; 25 μL of the supernatant was then transferred to reading plates (384-well, polystyrene plated (PS), Corning CLS3680), with hemolysis determined by measuring the supernatant absorbance at […] (OD405) using cells without inhibitors as negative control and cells with 1% Triton X-100 (Sigma T8787) as positive control. […] Melittin (Sigma M2272) was used as internal control on each plate.

[13] = system: HEK-293 human embryonic kidney cells ATCC CRL-1573; settings: initial CO-ADD screening, 20 h
Procedure: The cells were incubated together with the compounds for 20 h at 37 °C in 5% CO2. […] Tamoxifen (Sigma T5648) was used as internal control on each plate.

[14] = ≥80% inhibition, converted with MW of Table S12
[15] = ATCC208821, comparator antifungals, MIC = ≥80% inhibition, read-out: MIC* Cryptococcus neoformans ATCC 208821
[16] = ATCC208821, comparator antifungals, ≥80% inhibition, converted with MW of Table S12, read-out: MIC* Cryptococcus neoformans ATCC 208821

Structure (SMILES) | MIC MRSA (Sa) [9] | MIC Pa [10] | MIC Ec [11] | MIC Ab [12] | MIC ([1]; MIC = ≥80% inhibition) [µg/mL] | MIC [1, 14] [µM] | MIC [2, 15] [µg/mL] | MIC [2, 16] [µM] | MIC ([3]; MIC = ≥80% inhibition) [µg/mL] | MIC [3, 14] [µM] | MIC ([4]; MIC = ≥80% inhibition) [µg/mL] | MIC [4, 14] [µM] | MIC ([5]; MIC = ≥80% inhibition) [µg/mL] | MIC [5, 14] [µM] | MIC ([6]; MIC = ≥80% inhibition) [µg/mL] | MIC [6, 14] [µM] | MIC ([7]; MIC = ≥80% inhibition) [µg/mL] | MIC [7, 14] [µM] | MIC ([8]; MIC = ≥80% inhibition) [µg/mL] | MIC [8, 14] [µM] | further results
CCC(C)n1ncn(-c2ccc(N3CCN(c4ccc(OCC5COC(Cn6cncn6)(c6ccc(Cl)cc6Cl)O5)cc4)CC3)cc2)c1=O (stereo not drawn) [Itraconazole, reference compound] | – | – | – | – | 0.062 to 0.25 | 0.089 to 0.354 | 1 to 2 | 1.42 to 2.83 | 2 | 2.83 | 2 to 4 | 2.83 to 5.67 | 32 | 45 | 2 to 8 | 2.83 to 11.3 | 0.063 | 0.089 | 2 | 2.83 | –
CCCCCOc1ccc(-c2ccc(-c3ccc(C(=O)N[C@H]4C[C@@H](O)[C@@H](O)NC(=O)[C@@H]5[C@@H](O)[C@@H](C)CN5C(=O)[C@H]([C@@H](C)O)NC(=O)[C@H]([C@H](O)[C@@H](O)c5ccc(O)cc5)NC(=O)[C@@H]5C[C@@H](O)CN5C(=O)[C@H]([C@@H](C)O)NC4=O)cc3)cc2)cc1 [Anidulafungin, reference compound] ({pTerphenylCO(4''-OnC5H11)}-[Orn(4R-OH,5R-OH)]T[Hyp][hTyr(3S-OH,4S-OH)]T[Pro(3S-OH,4S-Me)]; lactam 1-C) | – | – | – | – | 0.031 to 0.125 | 0.027 to 0.11 | – | – | 0.004 to 0.008 | 0.003 to 0.007 | 0.06 to 0.25 | 0.055 to 0.219 | 0.008 | 0.007 | 0.003 to 0.25 | 0.003 to 0.219 | 0.031 to 0.125 | 0.027 to 0.11 | 0.25 | 0.219 | MIC ([2]; ATCC208821, read-out: MIC* Cryptococcus neoformans ATCC 208821): 0.016 µg/mL to 0.125 µg/mL and 0.014 µM to 0.11 µM
C[C@@H]1[C@H](O)[C@@H](C)/C=C/C=C/C=C/C=C/C=C/C=C/C=C/[C@H](O[C@@H]2O[C@H](C)[C@@H](O)[C@H](N)[C@@H]2O)C[C@@H]2O[C@](O)(C[C@@H](O)C[C@@H](O)[C@H](O)CC[C@@H](O)C[C@@H](O)CC(=O)O[C@H]1C)C[C@H](O)[C@H]2C(=O)O [Amphotericin B, reference compound] | – | – | – | – | 0.125 to 1 | 0.192 to 1.53 | 2 to 8 | 3.01 to 12.3 | 2 to 4 | 3.01 to 6.13 | 1 to 8 | 1.53 to 12.3 | ≥ 64 | ≥ 98.2 | 4 to 16 | 6.13 to 24.5 | 16 | 24.5 | > 128 | ≥ 196 | –

The next lines start with results.

MIC MRSA (Sa) [9] | MIC Pa [10] | MIC Ec [11] | MIC Ab [12] | Structure (SMILES) | MIC ([1]; MIC = ≥80% inhibition) [µg/mL] | MIC [1, 14] [µM] | MIC [2, 15] [µg/mL] | MIC [2, 16] [µM] | MIC ([3]; MIC = ≥80% inhibition) [µg/mL] | MIC [3, 14] [µM] | MIC ([4]; MIC = ≥80% inhibition) [µg/mL] | MIC [4, 14] [µM] | MIC ([5]; MIC = ≥80% inhibition) [µg/mL] | MIC [5, 14] [µM] | MIC ([6]; MIC = ≥80% inhibition) [µg/mL] | MIC [6, 14] [µM] | MIC ([7]; MIC = ≥80% inhibition) [µg/mL] | MIC [7, 14] [µM] | MIC ([8]; MIC = ≥80% inhibition) [µg/mL] | MIC [8, 14] [µM] | further results
> 32 µg/mL | > 32 µg/mL | > 32 µg/mL | > 32 µg/mL | O=C([O][Ag])c1ccc(N2N=C(/C=C/c3ccccc3)CC2c2ccccc2)cc1.O=C([O][Ag])c1ccc(N2N=C(/C=C/c3ccccc3)CC2c2ccccc2)cc1 (racemic) [Ag3] | – | – | – | – | – | – | – | – | – | – | – | – | – | – | – | – | RBC HC10 (human red blood cells): > 32 µg/mL; MIC Ca [1]: 16 µg/mL; MIC Cn [2]: 16 µg/mL; HEK CC50 [13]: > 32 µg/mL
> 20 µM | > 20 µM | > 20 µM | > 20 µM | O=C([O][Eu]([O]C(=O)c1ccccc1F)[O]C(=O)c1ccccc1F)c1ccccc1F.c1cnc2c(c1)ccc1cccnc12 [Eu-S6] | – | – | – | – | – | – | – | – | – | – | – | – | – | – | – | – | RBC HC10 (human red blood cells): > 20 µM; MIC Ca [1]: 20 µM; MIC Cn [2]: 20 µM; CC50 ([13]; read-out: HEK CC50): 9.9 µM
